How the values were obtained:
[1] = target: GDP-bound NRAS wild-type protein (Homo sapiens, UniProt P01111); assay: Binding to NRAS by surface plasmon resonance (SPR), Single Cycle Kinetics; settings: KD ratio NRAS/KRAS, SPR, GDP-bound wild-type proteins
[2] = target: GDP-bound HRAS wild-type protein (Homo sapiens, UniProt P01112); assay: Binding to HRAS by surface plasmon resonance (SPR), Single Cycle Kinetics; settings: KD ratio HRAS/KRAS, SPR, GDP-bound wild-type proteins
Sequence of GDP-bound HRAS wild-type protein (P01112 whole entry): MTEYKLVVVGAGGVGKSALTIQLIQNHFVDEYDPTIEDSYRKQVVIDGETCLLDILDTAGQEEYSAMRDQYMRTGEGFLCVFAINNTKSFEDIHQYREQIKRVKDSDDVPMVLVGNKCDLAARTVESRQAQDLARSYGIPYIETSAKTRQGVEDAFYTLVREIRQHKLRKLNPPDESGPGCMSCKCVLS

Sequence of GDP-bound NRAS wild-type protein (P01111 whole entry): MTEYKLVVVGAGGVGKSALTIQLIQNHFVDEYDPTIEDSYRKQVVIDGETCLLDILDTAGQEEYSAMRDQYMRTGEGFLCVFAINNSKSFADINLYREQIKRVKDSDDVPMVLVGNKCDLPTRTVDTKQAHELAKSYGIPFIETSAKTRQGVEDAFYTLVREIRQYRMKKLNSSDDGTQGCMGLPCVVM

## CCC[C@H]1C(=O)N[C@@H]([C@@H](C)CC)C(=O)N2CCC[C@H]2C(=O)N(C)[C@H]2C/C=C\CCN(C2=O)[C@@H](Cc2ccc(C(F)(F)F)cc2)C(=O)N(C)CC(=O)N[C@@H](CCc2ccc(C(F)(F)F)c(OC)c2)C(=O)N2C[C@H](OCC)C[C@H]2C(=O)N(C)C2(CCC2)C(=O)N(C)[C@@H](C2CCCC2)C(=O)N(C)[C@H](C(=O)N2CCCC2)CC(=O)N1C [PP3101]
[1]
  NRAS/KRAS (ratio of KD value with respect to GDP-bound NRAS wild-type protein to KD value with respect to KRAS): A (a compound having 10 or more and less than 20 is denoted as A)
[2]
  HRAS/KRAS (ratio of KD value with respect to GDP-bound HRAS wild-type protein to KD value with respect to KRAS): A (a compound having 10 or more and less than 20 is denoted as A)

## CCC[C@H]1C(=O)N[C@@H]([C@@H](C)CC)C(=O)N2CCC[C@H]2C(=O)N(C)[C@H]2C/C=C\CCN(C2=O)[C@@H](Cc2ccc(C)cc2)C(=O)N(C)CC(=O)N[C@@H](CCc2ccc(C(F)(F)F)c(OC)c2)C(=O)N2C[C@H](OCC)C[C@H]2C(=O)N(C)C2(CCC2)C(=O)N(C)[C@@H](C2CCCC2)C(=O)N(C)[C@H](C(=O)N2CCCC2)CC(=O)N1C [PP3102, (1S,4S,10S,13S,17S,20S,26S,28R,32S,38S,42Z)-20-cyclopentyl-28-ethoxy-32-[2-[3-methoxy-4-(trifluoromethyl)phenyl]ethyl]-2,14,18,21,24,36-hexamethyl-10-[(1S)-1-methylpropyl]-13-propyl-38-(p-tolylmethyl)-17-(pyrrolidine-1-carbonyl)spiro[2,8,11,14,18,21,24,30,33,36,39-undecazatetracyclo[37.5.1.0^4,8.0^26,30]pentatetracont-42-ene-23,1′-cyclobutane]-3,9,12,15,19,22,25,31,34,37,45-undecone]
[1]
  NRAS/KRAS (ratio of KD value with respect to GDP-bound NRAS wild-type protein to KD value with respect to KRAS): A (a compound having 10 or more and less than 20 is denoted as A)
[2]
  HRAS/KRAS (ratio of KD value with respect to GDP-bound HRAS wild-type protein to KD value with respect to KRAS): A (a compound having 10 or more and less than 20 is denoted as A)

## CCC[C@H]1C(=O)N[C@@H]([C@@H](C)CC)C(=O)N(C)CC(=O)N(C)[C@H]2C/C=C\CCN(C2=O)[C@@H](Cc2ccc(C)cc2)C(=O)N(C)CC(=O)N[C@@H](CCc2ccc(C(F)(F)F)c(OC)c2)C(=O)N2C[C@H](OCC)C[C@H]2C(=O)N(C)C2(CCC2)C(=O)N(C)[C@@H](C2CCCC2)C(=O)N(C)[C@H](C(=O)N2CCCCC2)CC(=O)N1C [PP3104, (2S,8S,12R,14S,20S,23S,27S,30S,36S,38Z)-20-cyclopentyl-12-ethoxy-8-[2-[3-methoxy-4-(trifluoromethyl)phenyl]ethyl]-4,16,19,22,26,32,35-heptamethyl-30-[(1S)-1-methylpropyl]-23-(piperidine-1-carbonyl)-27-propyl-2-(p-tolylmethyl)spiro[1,4,7,10,16,19,22,26,29,32,35-undecazatricyclo[34.5.1.0^10,14]dotetracont-38-ene-17,1′-cyclobutane]-3,6,9,15,18,21,25,28,31,34,42-undecone]
[1]
  NRAS/KRAS (ratio of KD value with respect to GDP-bound NRAS wild-type protein to KD value with respect to KRAS): A (a compound having 10 or more and less than 20 is denoted as A)
[2]
  HRAS/KRAS (ratio of KD value with respect to GDP-bound HRAS wild-type protein to KD value with respect to KRAS): A (a compound having 10 or more and less than 20 is denoted as A)

## CCC[C@H]1C(=O)N[C@@H]([C@@H](C)CC)C(=O)N(C)CC(=O)N(C)[C@H]2C/C=C\CCN(C2=O)[C@@H](Cc2ccc(C(F)(F)F)cc2)C(=O)N(C)CC(=O)N[C@@H](CCc2ccc(C(F)(F)F)c(OC)c2)C(=O)N2C[C@H](OCC)C[C@H]2C(=O)N(C)C2(CCC2)C(=O)N(C)[C@@H](C2CCCC2)C(=O)N(C)[C@H](C(=O)N2CCCC2)CC(=O)N1C [PP3105, (2S,8S,12R,14S,20S,23S,27S,30S,36S,38Z)-20-cyclopentyl-12-ethoxy-8-[2-[3-methoxy-4-(trifluoromethyl)phenyl]ethyl]-4,16,19,22,26,32,35-heptamethyl-30-[(1S)-1-methylpropyl]-27-propyl-23-(pyrrolidine-1-carbonyl)-2-[[4-(trifluoromethyl)phenyl]methyl]spiro[1,4,7,10,16,19,22,26,29,32,35-undecazatricyclo[34.5.1.0^10,14]dotetracont-38-ene-17,1′-cyclobutane]-3,6,9,15,18,21,25,28,31,34,42-undecone]
[1]
  NRAS/KRAS (ratio of KD value with respect to GDP-bound NRAS wild-type protein to KD value with respect to KRAS): AA (a compound having 20 or more is denoted as AA)
[2]
  HRAS/KRAS (ratio of KD value with respect to GDP-bound HRAS wild-type protein to KD value with respect to KRAS): A (a compound having 10 or more and less than 20 is denoted as A)

## CCC[C@H]1C(=O)N[C@@H]([C@@H](C)CC)C(=O)N(C)CC(=O)N(C)[C@H]2C/C=C\CCN(C2=O)[C@@H](Cc2ccc(C)cc2)C(=O)N(C)CC(=O)N[C@@H](CCc2ccc(C(F)(F)F)c(OC)c2)C(=O)N2C[C@H](OCC)C[C@H]2C(=O)N(C)C2(CCC2)C(=O)N(C)[C@@H](C2CCCC2)C(=O)N(C)[C@H](C(=O)N2CCCC2)CC(=O)N1C [PP3106, (2S,8S,12R,14S,20S,23S,27S,30S,36S,38Z)-20-cyclopentyl-12-ethoxy-8-[2-[3-methoxy-4-(trifluoromethyl)phenyl]ethyl]-4,16,19,22,26,32,35-heptamethyl-30-[(1S)-1-methylpropyl]-27-propyl-2-(p-tolylmethyl)-23-(pyrrolidine-1-carbonyl)spiro[1,4,7,10,16,19,22,26,29,32,35-undecazatricyclo[34.5.1.0^10,14]dotetracont-38-ene-17,1′-cyclobutane]-3,6,9,15,18,21,25,28,31,34,42-undecone]
[1]
  NRAS/KRAS (ratio of KD value with respect to GDP-bound NRAS wild-type protein to KD value with respect to KRAS): A (a compound having 10 or more and less than 20 is denoted as A)
[2]
  HRAS/KRAS (ratio of KD value with respect to GDP-bound HRAS wild-type protein to KD value with respect to KRAS): A (a compound having 10 or more and less than 20 is denoted as A)

## CCC[C@H]1C(=O)N[C@@H]([C@@H](C)CC)C(=O)N(C2CC2)CC(=O)N(C)[C@H]2C/C=C\CCN(C2=O)[C@@H](Cc2ccc(C(F)(F)F)cc2)C(=O)N(C)CC(=O)N[C@@H](CCc2cc(F)c(C(F)(F)F)c(F)c2)C(=O)N2C[C@H](OCC)C[C@H]2C(=O)N(C)C2(CCC2)C(=O)N(C)[C@@H](C2CCCC2)C(=O)N(C)[C@H](C(=O)N2CCCCC2)CC(=O)N1C [PP3110]
[1]
  NRAS/KRAS (ratio of KD value with respect to GDP-bound NRAS wild-type protein to KD value with respect to KRAS): A (a compound having 10 or more and less than 20 is denoted as A)
[2]
  HRAS/KRAS (ratio of KD value with respect to GDP-bound HRAS wild-type protein to KD value with respect to KRAS): A (a compound having 10 or more and less than 20 is denoted as A)

## CCC[C@H]1C(=O)N[C@@H]([C@@H](C)CC)C(=O)N(C2CC2)CC(=O)N(C)[C@H]2C/C=C\CCN(C2=O)[C@@H](Cc2ccc(C(F)(F)F)cc2)C(=O)N(C)CC(=O)N[C@@H](CCc2cc(F)c(C(F)(F)F)c(F)c2)C(=O)N2C[C@H](OCC)C[C@H]2C(=O)N(C)C2(CCC2)C(=O)N(C)[C@@H](C2CCCC2)C(=O)N(C)[C@H](C(=O)N2CCCC2)CC(=O)N1C [PP3112]
[1]
  NRAS/KRAS (ratio of KD value with respect to GDP-bound NRAS wild-type protein to KD value with respect to KRAS): A (a compound having 10 or more and less than 20 is denoted as A)
[2]
  HRAS/KRAS (ratio of KD value with respect to GDP-bound HRAS wild-type protein to KD value with respect to KRAS): B (a compound having 3 or more and less than 10 is denoted as B)

From patent publication US20250230193A1, “CYCLIC COMPOUND HAVING SELECTIVE KRAS INHIBITORY EFFECT ON HRAS AND NRAS” (CHUGAI SEIYAKU KABUSHIKI KAISHA, priority 2022, published 2025)
